# Assays:
# [1] = molecular target: 5-HT1B (Homo sapiens, UniProt P28222); assay: PDSP radioligand assay; type: binding
# Description: (§1) The ex vivo binding affinities of σRs of CNY‐01 and CNY‐02 were measured using a competitive radioligand binding assay.^[ [35] ^]
# (§2) Details of individual binding assay conditions and protocols are available at the NIMH PDSP website: https://pdsp.unc.edu/pdspweb/.
# [2] = molecular target: T1, Alpha2C (Homo sapiens, UniProt P18825); assay: PDSP radioligand assay; type: binding
# T1 sequence (P18825 1-462): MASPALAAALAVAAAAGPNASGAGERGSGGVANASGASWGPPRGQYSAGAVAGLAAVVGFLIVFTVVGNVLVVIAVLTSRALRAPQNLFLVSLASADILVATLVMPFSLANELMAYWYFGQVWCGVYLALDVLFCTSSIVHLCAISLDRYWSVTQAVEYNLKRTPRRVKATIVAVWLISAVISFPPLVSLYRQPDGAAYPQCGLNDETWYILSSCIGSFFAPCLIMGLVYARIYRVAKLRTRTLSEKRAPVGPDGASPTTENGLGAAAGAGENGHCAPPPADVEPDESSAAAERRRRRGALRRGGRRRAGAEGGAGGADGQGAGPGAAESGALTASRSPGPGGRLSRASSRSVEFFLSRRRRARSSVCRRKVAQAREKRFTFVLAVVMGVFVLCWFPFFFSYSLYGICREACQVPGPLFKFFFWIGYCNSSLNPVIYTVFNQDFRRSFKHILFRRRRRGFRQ
# Description: as §1, §2
# [3] = molecular target: 5-HT1D (Homo sapiens, UniProt P28221); assay: PDSP radioligand assay; type: binding
# Sequence of 5-HT1D (P28221 whole entry, species assumed): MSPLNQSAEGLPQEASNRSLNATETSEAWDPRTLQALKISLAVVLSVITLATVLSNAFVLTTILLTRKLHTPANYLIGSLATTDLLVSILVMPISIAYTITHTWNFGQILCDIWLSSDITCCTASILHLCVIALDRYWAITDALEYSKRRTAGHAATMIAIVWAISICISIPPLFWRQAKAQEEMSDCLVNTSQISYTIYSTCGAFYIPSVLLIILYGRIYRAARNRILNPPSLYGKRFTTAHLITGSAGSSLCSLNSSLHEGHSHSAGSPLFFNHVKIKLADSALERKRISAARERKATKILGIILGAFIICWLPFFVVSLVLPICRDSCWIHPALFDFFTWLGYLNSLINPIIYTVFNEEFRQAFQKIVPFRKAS
# Description: as §1, §2
# [4] = molecular target: T2, 5-HT3 (Homo sapiens, UniProt P46098); assay: PDSP radioligand assay; type: binding
# T2 construct: purchased NIMH Psychoactive Drug Screening Program (PDSP)
# T2 sequence (P46098 24-478): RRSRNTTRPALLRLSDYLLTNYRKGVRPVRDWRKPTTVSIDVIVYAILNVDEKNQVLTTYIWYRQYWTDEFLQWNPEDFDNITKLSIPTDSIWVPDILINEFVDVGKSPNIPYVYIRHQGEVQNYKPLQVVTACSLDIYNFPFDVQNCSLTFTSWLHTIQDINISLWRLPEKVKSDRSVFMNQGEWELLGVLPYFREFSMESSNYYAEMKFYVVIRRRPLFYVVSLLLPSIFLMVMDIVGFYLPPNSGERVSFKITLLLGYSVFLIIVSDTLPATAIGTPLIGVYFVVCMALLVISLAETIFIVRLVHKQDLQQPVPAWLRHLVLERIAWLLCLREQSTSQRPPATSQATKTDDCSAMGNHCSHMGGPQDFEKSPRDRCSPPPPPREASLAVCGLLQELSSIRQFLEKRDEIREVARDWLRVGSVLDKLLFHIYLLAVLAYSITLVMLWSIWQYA
# Description: as §1, §2
# [5] = tested on: BZP Rat Brain Site; assay: PDSP radioligand assay; type: binding; conditions: 10 µM
# Description: as §1, §2
# [6] = molecular target: H1 (Homo sapiens, UniProt P35367); assay: PDSP radioligand assay; type: binding
# Sequence of H1 (P35367 whole entry): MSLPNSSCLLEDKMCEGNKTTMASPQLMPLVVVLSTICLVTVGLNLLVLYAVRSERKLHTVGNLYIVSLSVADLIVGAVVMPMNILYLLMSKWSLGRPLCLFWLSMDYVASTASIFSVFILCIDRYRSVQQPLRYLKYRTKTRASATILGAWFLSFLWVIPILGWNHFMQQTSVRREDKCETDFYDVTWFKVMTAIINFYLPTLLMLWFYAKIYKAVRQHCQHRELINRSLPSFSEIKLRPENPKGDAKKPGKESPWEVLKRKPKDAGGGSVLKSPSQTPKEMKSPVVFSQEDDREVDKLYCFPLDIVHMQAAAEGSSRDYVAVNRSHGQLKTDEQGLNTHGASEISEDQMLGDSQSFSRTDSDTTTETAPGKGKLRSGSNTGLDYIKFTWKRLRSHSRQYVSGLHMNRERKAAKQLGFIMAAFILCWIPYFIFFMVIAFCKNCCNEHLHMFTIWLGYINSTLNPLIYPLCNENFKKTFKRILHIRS
# Description: as §1, §2
# [7] = molecular target: T3, DOR (Homo sapiens, UniProt P41143); assay: PDSP radioligand assay; type: binding
# T3 construct: purchased NIMH Psychoactive Drug Screening Program (PDSP)
# T3 sequence (P41143 whole entry): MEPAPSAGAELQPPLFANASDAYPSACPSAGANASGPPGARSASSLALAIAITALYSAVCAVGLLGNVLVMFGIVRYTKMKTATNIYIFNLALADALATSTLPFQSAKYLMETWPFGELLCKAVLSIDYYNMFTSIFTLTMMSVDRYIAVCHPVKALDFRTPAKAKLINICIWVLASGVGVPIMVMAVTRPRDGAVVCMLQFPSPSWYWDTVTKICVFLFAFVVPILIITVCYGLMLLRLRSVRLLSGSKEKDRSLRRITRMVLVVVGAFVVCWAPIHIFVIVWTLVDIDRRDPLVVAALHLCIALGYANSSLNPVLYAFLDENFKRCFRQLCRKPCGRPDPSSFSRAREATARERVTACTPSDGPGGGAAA
# Description: as §1, §2
# [8] = molecular target: 5-HT2B (Homo sapiens, UniProt P41595); assay: PDSP radioligand assay; type: binding
# Sequence of 5-HT2B (P41595 whole entry, species assumed): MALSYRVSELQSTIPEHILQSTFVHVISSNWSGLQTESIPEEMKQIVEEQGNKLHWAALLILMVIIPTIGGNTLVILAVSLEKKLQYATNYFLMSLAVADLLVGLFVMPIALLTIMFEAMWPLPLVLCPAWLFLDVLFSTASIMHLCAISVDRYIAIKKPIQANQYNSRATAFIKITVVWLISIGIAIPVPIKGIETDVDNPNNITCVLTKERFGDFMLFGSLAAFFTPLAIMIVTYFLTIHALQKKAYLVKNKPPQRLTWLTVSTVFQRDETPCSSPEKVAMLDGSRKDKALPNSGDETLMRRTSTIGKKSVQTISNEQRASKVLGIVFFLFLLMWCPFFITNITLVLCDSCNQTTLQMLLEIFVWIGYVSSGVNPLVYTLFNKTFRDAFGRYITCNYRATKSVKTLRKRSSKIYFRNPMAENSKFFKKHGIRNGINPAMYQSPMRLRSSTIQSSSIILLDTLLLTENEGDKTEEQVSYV
# Description: as §1, §2
# [9] = molecular target: T4, Alpha1B (Homo sapiens, UniProt P35368); assay: PDSP radioligand assay; type: binding
# T4 construct: purchased NIMH Psychoactive Drug Screening Program (PDSP)
# T4 sequence (P35368 whole entry): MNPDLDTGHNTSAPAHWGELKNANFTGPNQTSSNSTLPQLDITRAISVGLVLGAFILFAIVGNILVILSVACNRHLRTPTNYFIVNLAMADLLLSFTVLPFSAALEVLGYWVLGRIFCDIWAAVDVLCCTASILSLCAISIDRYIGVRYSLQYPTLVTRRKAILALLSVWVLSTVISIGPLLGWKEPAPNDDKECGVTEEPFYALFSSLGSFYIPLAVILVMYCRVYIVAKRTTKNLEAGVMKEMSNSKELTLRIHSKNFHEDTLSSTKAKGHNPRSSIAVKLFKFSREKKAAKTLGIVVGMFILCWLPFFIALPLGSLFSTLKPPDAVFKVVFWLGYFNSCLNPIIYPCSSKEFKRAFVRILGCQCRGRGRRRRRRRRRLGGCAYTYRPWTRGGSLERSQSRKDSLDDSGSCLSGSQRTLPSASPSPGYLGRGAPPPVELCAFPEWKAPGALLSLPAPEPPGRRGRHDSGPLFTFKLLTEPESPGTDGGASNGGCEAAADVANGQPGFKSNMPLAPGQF
# Description: as §1, §2
# [10] = molecular target: T5, M1 (Homo sapiens, UniProt P11229); assay: PDSP radioligand assay; type: binding
# T5 construct: purchased NIMH Psychoactive Drug Screening Program (PDSP)
# T5 sequence (P11229 whole entry): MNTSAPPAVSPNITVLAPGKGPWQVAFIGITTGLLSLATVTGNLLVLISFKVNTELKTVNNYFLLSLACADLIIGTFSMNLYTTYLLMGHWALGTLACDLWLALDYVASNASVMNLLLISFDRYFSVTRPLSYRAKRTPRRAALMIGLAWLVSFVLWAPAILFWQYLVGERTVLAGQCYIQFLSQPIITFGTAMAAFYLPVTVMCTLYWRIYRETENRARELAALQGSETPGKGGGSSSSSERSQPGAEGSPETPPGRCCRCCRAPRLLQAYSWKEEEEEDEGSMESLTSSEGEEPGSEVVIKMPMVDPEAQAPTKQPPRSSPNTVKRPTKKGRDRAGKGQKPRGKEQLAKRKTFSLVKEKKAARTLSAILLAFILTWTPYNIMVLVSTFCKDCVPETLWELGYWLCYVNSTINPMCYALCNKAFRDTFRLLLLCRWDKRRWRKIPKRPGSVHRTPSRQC
# Description: as §1, §2
# [11] = molecular target: T6, SERT (Homo sapiens, UniProt P31645); assay: PDSP radioligand assay; type: binding
# T6 construct: purchased NIMH Psychoactive Drug Screening Program (PDSP)
# [12] = molecular target: T7, MOR (Homo sapiens, UniProt P35372); assay: PDSP radioligand assay; type: binding
# T7 construct: purchased NIMH Psychoactive Drug Screening Program (PDSP)
# T7 sequence (P35372 whole entry): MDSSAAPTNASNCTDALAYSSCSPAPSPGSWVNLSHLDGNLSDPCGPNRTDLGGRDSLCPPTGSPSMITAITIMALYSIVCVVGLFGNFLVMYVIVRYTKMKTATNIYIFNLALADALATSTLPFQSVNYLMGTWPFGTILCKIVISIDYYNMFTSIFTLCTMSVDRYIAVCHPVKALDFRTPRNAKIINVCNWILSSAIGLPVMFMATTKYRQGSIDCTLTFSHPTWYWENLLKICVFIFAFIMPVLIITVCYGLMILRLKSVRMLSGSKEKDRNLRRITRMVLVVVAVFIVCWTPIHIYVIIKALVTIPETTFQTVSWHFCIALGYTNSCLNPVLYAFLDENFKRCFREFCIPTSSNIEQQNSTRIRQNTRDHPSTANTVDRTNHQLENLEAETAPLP
# [13] = molecular target: T8, M5 (Homo sapiens, UniProt P08912); assay: PDSP radioligand assay; type: binding
# T8 sequence (P08912 1-532): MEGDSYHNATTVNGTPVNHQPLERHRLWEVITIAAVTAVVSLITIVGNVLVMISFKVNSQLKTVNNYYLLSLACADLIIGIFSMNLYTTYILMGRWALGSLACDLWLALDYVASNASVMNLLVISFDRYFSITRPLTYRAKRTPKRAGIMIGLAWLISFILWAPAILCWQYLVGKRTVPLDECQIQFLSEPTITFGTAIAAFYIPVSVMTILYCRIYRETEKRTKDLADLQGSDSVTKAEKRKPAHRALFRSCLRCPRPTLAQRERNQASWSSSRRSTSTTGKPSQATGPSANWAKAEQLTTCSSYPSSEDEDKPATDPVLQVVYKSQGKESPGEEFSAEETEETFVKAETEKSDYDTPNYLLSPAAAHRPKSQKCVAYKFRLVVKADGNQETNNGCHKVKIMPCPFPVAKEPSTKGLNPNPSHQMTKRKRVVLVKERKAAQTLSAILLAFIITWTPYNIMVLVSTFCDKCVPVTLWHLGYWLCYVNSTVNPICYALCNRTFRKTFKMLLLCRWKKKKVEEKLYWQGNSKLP
# [14] = tested on: σ2R; assay: Ex vivo competitive radioligand binding assay for σ2R, [3H]-DTG; set-up: species or system Dunkin Hartley guinea pig; conditions: selectivity ratio, guinea pig brain membranes
# Description: as §1
# The following specific radioligands and tissue sources were used: (a) σ 1R, [^3H] (+)‐pentazocine, Dunkin Hartley guinea pig brain membranes; (b) σ 2R, [^3H]‐DTG, Dunkin Hartley guinea pig brain membranes. […] For σ 2R binding study, the membrane suspension was incubated with [^3H]‐DTG (3 nM), different concentration test compounds, within 400 nM (+)‐SKF10047 to block σ 1R. Nonspecific binding was conducted in both binding assays under similar conditions, adding […] haloperidol. After incubation, the mixture was rapidly filtrated through Whatman GF/B glass filters, washed twice and transferred to scintillation vials, and the radioactivity bound was measured by a Beckman LS 6500 liquid scintillation counter. Inhibition constants (Ki) were calculated based on the Cheng and Prusoff equation after the IC50 values were obtained.
# [15] = molecular target: NET (Homo sapiens, UniProt P23975); assay: PDSP radioligand assay; type: binding
# Sequence of NET (P23975 whole entry): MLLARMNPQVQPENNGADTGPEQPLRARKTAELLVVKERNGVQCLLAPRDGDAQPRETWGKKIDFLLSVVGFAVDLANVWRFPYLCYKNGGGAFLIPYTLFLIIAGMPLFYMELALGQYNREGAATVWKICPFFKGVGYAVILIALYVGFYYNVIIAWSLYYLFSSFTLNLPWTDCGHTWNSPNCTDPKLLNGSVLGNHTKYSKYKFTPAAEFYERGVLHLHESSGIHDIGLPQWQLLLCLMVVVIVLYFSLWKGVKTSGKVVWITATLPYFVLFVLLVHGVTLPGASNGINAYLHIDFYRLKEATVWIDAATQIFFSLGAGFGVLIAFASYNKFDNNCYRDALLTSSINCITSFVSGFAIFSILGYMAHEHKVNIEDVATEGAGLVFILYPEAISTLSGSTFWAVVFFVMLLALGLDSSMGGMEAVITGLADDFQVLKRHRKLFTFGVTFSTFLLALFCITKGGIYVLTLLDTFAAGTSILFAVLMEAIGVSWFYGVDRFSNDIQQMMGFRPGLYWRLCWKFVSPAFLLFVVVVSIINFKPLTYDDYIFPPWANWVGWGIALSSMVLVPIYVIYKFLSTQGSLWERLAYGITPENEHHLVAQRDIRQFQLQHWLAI
# [16] = molecular target: T9, σ1R (Cavia porcellus, UniProt Q60492); assay: Ex vivo competitive radioligand binding assay for σ1R, [3H](+)-pentazocine; set-up: species or system Dunkin Hartley guinea pig; conditions: guinea pig brain membranes
# T9 construct: guinea pig brain membranes protein; from tissue; host or cells: guinea pig brain membranes
# T9 sequence (Q60492 whole entry): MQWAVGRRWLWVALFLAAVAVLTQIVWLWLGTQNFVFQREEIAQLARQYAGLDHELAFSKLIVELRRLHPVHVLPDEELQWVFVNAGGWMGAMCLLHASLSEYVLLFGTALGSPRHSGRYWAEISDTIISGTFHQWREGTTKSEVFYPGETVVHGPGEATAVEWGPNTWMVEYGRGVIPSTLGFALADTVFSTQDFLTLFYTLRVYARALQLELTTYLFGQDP
# Description: as §1
# The following specific radioligands and tissue sources were used: (a) σ 1R, [^3H] (+)‐pentazocine, Dunkin Hartley guinea pig brain membranes; (b) σ 2R, [^3H]‐DTG, Dunkin Hartley guinea pig brain membranes. Membrane preparation of brain tissue was performed following the previously reported method.4 Generally, for σ 1R binding test, guinea pig brain membranes protein (5‐10 mg), [^3H]‐(+)‐pentazocine (4 nM), test compounds solution in various concentrations (10^−5 to 10^−10 M) were incubated at 25 °C for 180 min in Tris‐HCl buffer (pH 8.0). For σ 2R binding study, the membrane suspension was incubated with [^3H]‐DTG (3 nM), different concentration test compounds, within 400 nM (+)‐SKF10047 to block σ 1R. Nonspecific binding was conducted in both binding assays under similar conditions, adding […] haloperidol. After incubation, the mixture was rapidly filtrated through Whatman GF/B glass filters, washed twice and transferred to scintillation vials, and the radioactivity bound was measured by a Beckman LS 6500 liquid scintillation counter. Inhibition constants (Ki) were calculated based on the Cheng and Prusoff equation after the IC50 values were obtained.
# [17] = molecular target: T10, PBR (Rattus norvegicus, UniProt P16257); assay: PDSP radioligand assay; type: binding
# T10 construct: purchased NIMH Psychoactive Drug Screening Program (PDSP)
# Sequence of 5-HT1B (P28222 whole entry, species assumed): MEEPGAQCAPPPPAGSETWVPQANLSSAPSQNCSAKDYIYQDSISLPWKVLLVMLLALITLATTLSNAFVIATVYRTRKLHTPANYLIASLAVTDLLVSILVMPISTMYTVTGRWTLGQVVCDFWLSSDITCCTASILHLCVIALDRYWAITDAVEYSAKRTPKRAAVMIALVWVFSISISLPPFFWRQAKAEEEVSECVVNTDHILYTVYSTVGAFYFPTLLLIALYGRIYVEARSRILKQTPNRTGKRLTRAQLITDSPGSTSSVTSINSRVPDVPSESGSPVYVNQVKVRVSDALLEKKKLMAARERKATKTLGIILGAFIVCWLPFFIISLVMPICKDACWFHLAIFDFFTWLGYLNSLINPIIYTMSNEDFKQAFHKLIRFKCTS
smiles,measurement,setting,value
"Cc1nc(-c2ccc(Cl)cc2)nc(OCCCN2CCN(C)CC2)c1Cl [CNY-02, 5‐chloro‐2‐(4‐chlorophenyl)‐4‐methyl‐6‐(3‐(4‐methylpiperazin‐1‐yl)propoxy)pyrimidine]",Ki,[1],3.74 µM
same,inhibition at 10 µM,[1],60.3%
same,Ki,[2],3.77 µM
same,inhibition at 10 µM,[2],52.4%
same,Ki,[3],7.28 µM
same,inhibition at 10 µM,[3],54.5%
same,inhibition at 10 µM,[4],-1.23%
same,Mean % (inhibition),[5],23.26%
same,inhibition at 10 µM,[6],43.7%
same,inhibition at 10 µM,[7],1.3%
same,Ki,[8],0.53 µM
same,inhibition at 10 µM,[8],90.4%
same,inhibition at 10 µM,[9],-26.1%
same,inhibition at 10 µM,[10],36%
same,inhibition at 10 µM,[11],43%
same,inhibition at 10 µM,[12],-14.4%
same,Ki,[13],2.5 µM
same,inhibition at 10 µM,[13],83.3%
same,σ2R/σ1R,[14],627
same,inhibition at 10 µM,[15],0.14%
same,Ki,[16],0.00205 µM
same,inhibition at 10 µM,[17],26%
"COc1ccc(-c2nc(C)c(Cl)c(OCCCN3CCCCC3)n2)cc1 [CNY-01, 5‐chloro‐2‐(4‐methoxyphenyl)‐4‐methyl‐6‐(3‐(piperidin‐1‐yl)propoxy)pyrimidine]",Ki,[1],3.2 µM
same,inhibition at 10 µM,[1],79.8%
same,Ki,[2],0.43 µM
same,inhibition at 10 µM,[2],85.1%
same,Ki,[3],2.67 µM
same,inhibition at 10 µM,[3],91.9%
same,inhibition at 10 µM,[4],7.61%
same,Mean % (inhibition),[5],10.99%
same,Ki,[6],0.667 µM
same,inhibition at 10 µM,[6],93.2%
same,inhibition at 10 µM,[7],3.77%
same,Ki,[8],0.914 µM
same,inhibition at 10 µM,[8],77.1%
same,inhibition at 10 µM,[9],-11.4%
same,inhibition at 10 µM,[10],22.3%
same,inhibition at 10 µM,[11],21.8%
same,inhibition at 10 µM,[12],-16.4%
same,Ki,[13],> 10 µM
same,inhibition at 10 µM,[13],59.1%
same,σ2R/σ1R,[14],322
same,Ki,[15],2.1 µM
same,inhibition at 10 µM,[15],50.4%
same,Ki,[16],0.00388 µM
same,inhibition at 10 µM,[17],25.8%
